Tests used:
[1] = test system: Hep-G2 cells; assay: APOPercentage apoptosis assay, Hep-G2; type: cell-based, human; details: Hep-G2, 24 h, IC50 of complexes, flow cytometry, vs untreated cells
[2] = test system: calf thymus DNA (CT-DNA); details: cited from earlier work

Compound | induction of apoptosis (APOPercentage dye uptake) [1] | binding constant Kb of known DNA intercalator [2]
N.N.[Cl][Pt][Cl] [Cisplatin] | but not Hep-G2 cells | –
COc1cccc2c1C(=O)c1c(O)c3c(c(O)c1C2=O)C[C@@](O)(C(=O)CO)C[C@@H]3O[C@H]1C[C@H](N)[C@@H](O)[C@H](C)O1 [Epirubicin] | – | 3.4 × 10^4 M^–1
Nc1ccc2cc3ccc(N)cc3nc2c1 [Proflavine] | – | 2.32 × 10^4 M^–1
CC[n+]1c(-c2ccccc2)c2cc(N)ccc2c2ccc(N)cc21 [ethidium bromide] | – | 1.4 × 10^6 M^–1
